Measurements published in patent US20120003329A1, “Use of A2B Adenosine Receptor Antagonists for Treating Pulmonary Hypertension” (Gilead Sciences, Inc., priority 2010, published 2012).

Legend:
HPAECs [1] = assay: Release of IL-8 in endothelial cells (ELISA); format: cell-based, human; conditions: NECA 10 μM with Compound A 100 nM, 18 hr
Experimental: (§1) HPASM were grown in smooth muscle growth medium (SMGM-2). HPAECs were grown in endothelium growth medium (EGM-2). Before treatment, cells were seeded in 24-well plates and allowed to grow to ˜80% confluency. Cells were washed and then incubated in serum free basal medium in the absence or presence of adenosine receptor agonists and antagonists. In the proliferation assays, HPASM were incubated in 50% medium collected from HPAEC cells treated with vehicle or NECA.
(§2) IL-6 and G-CSF were measured using human 30-plex luminex kit from Invitrogen (Carlsbad, Calif.). IL-8, endothelin-1, thromboxane B2 were measured using ELISA (kits obtained from Invitrogen, AssayDesigns (Ann Arbor, Mich.), and Caymen Biomedicals (Ann, Arbor, Mich.) respectively).
HPAECs were incubated in basal medium in the absence or presence of NECA (N-ethylcarboxamide adenosine) at various concentrations (0.1 μM, 1 μM, and 10 μM) and Compound A (100 nM) for 18 hours. NECA is a known adenosine agonist of A1 and A2 subtypes. The amount of IL-8, provided in pg/mL, was measured by ELISA.

HPASMs [2] = assay: Smooth muscle cell migration, Boyden chamber with conditional media; format: cell-based, human; conditions: conditional medium from HPASMs, NECA 10 μM and Compound A 100 nM, 18 hours; migration 24 hours
Experimental: Conditional media were collected from HPASMs treated with vehicle, NECA (10 μM), NECA (10 μM) and Compound A (100 nM), or NECA (10 μM) and an anti-IL-6 antibody (1 ng/mL, purchased from Invitrogen) for 18 hours were added to the lower wells of Boyden chamber assay systems as chemoattractants. HPASMs were allowed to migrate for 24 hours. […] It was also observed that IL-8 neutralizing antibody had no effect on cell migration. […] The released IL-6 in turn enhances smooth muscle cell migration (see FIG. 10B for illustration).

HPASMs [3] = assay: NECA-induced expression of NOTCH3 in HPASMs (real-time RT-PCR); format: cell-based, human; conditions: NECA 10 μM along with Compound A 100 nM, 1.5 hours
Experimental: (§3) Gene expression was determined using real-time RT-PCR with Stratagene PCR equipment (La Jolla, Calif.). Zhong H., et al. “A2B adenosine receptors increase cytokine release by bronchial smooth muscle cells, “American Journal of Respiratory Cell and Molecular Biology, 30(1): 118-125 (2004).
HPASMs were incubated with NECA (10 μM) or NECA (10 μM) along with Compound A (100 nM) for 1.5 hours. The expression of NOTCH3 was measured by quantitive real-time RT-PCR using the methodologies described above.

[4] = tested on: adenosine deaminase (ADA)-deficient mouse model of adenosine-dependent pulmonary injury; assay: Vascular wall thickening in the lungs of ADA-deficient mice (H&E staining); format: in vivo; conditions: 1 mg/kg intraperitoneal twice daily for 14 days, lungs at postnatal day 38
From the text: The model system being used is the adenosine deaminase (ADA)-deficient mouse model of adenosine-dependent pulmonary injury.
This example follows the protocol described in Sun C X, et al. “Role of A2B adenosine receptor signaling in adenosine-dependent pulmonary inflammation and injury,” J. Clin. Invest., 116(8):2173-2182 (2006), which is hereby incorporated by reference.
All ADA-deficient mice were maintained on ADA enzyme therapy from birth to postnatal day 21 to prevent defects in alveolar development. Banerjee, et al. Am. J. Respir. Cell Mol. Biol. 30-38-50 (2004). ADA enzyme therapy was discontinued at postnatal day 21, and 3 days later the mice were given intraperitoneal injections of 1 mg/kg of Compound A twice daily for 14 days.
Lungs were collected from postnatal day 38 mice and prepared routinely for sectioning and H&E staining Tissues were taken from control (ADA+) mice (FIG. 3A), the ADA-deficient mice (FIG. 3B), and the ADA-deficient mouse treated with Compound A (FIG. 3C). Sections are representative of 6-8 different mice from each treatment group.

HPASMs [5] = assay: Thromboxane B2 release from HPASMs (ELISA); format: cell-based, human; conditions: NECA 10 μM with Compound A 100 nM, 18 hours
Experimental: as §1, §2
(§4) HPASMs were incubated in the absence or presence of NECA at various concentrations (0.1 μM, 1 μM, and 10 μM) and Compound A (100 nM) for 18 hours.

HPASMs [6] = assay: Expression of collagen, extracellular matrix proteins and enzymes, real-time RT-PCR array; format: cell-based, human; conditions: NECA 10 μM together with Compound A 100 nM, 1.5 hours
Experimental: as §3
HPASMs were incubated in the presence of NECA (10 μM) or NECA (10 μM) together with Compound A (100 nM) for 1.5 hours. A real-time-RT-PCR array focusing on genes involved in tissue remodeling were conducted on the RNAs isolated from the HPASMs. NECA increased the mRNA expression of ADAMTS1, ADAMTS8, CDH1, MMPI, MMP12, HAS1, ITGA7, COL1A1, COL8A1 and CTGF (FIG. 12A-B).

HPAECs [7] = assay: Endothelin-1 release from HPAECs (ELISA); format: cell-based, human; conditions: NECA 10 μM with Compound A 100 nM, 18 hr
Experimental: as §1, §2
HPAECs were incubated in the absence or presence of NECA at various concentrations (0.1 μM, 1 μM, and 10 μM) and Compound A (100 nM) for 18 hours. The amount of ET-1, provided in pg/mL was measured by the ELISA protocol discussed above.

[8] = tested on: Male C57BL6 mice treated with bleomycin (BLM); assay: Bleomycin-induced pulmonary hypertension associated with chronic lung disease in mice; format: in vivo
Experimental: Methods: Male C57BL6 mice were treated with bleomycin (BLM) at 0.035 units per mouse, or vehicle (phosphate buffered saline (PBS)) intra-peritoneally twice weekly for 4 weeks. When pulmonary fibrosis was established, on day 15, mice were provided with special chow containing an A2B receptor antagonist, Compound A (˜10 mg/kg/day dose), for the next 18 days (FIG. 15). In contrast, control groups received normal chow.
On day 33, right ventricle systolic pressure (RVSP), systemic blood pressure, heart rate and lung function measurements were performed. Additionally, the lungs were collected for immunohistochemistry (IHC) for α-smooth muscle actin (αSMA).
Statistical Analysis: All data were analyzed using a 1-way ANOVA with a Newman-Keuls post test. The software used to conduct the statistical analysis was Graph-Pad Prism v5.00 (La Jolla Calif.). In all related figures, significance levels: *P<0.05, **[…]<P<0.01, ***P<0.001 refer to comparisons between PBS and BLM groups; significance levels: #P<0.05, # # 0.001<P<0.01, # # # P<0.001 refer to comparisons between BLM and BLM+Compound A groups. All values in the figures represent mean±SEM (standard error or the mean) for 5-8 mice per group.

HPASMs [9] = assay: Effect of NECA-activated HPAECs on proliferation of HPASMs (cell count); format: cell-based, human; conditions: supernatant of HPAECs treated with NECA 10 μM and Compound A 100 nM for 18 hours; HPASMs 18 hours
Experimental: as §1
Cell supernatants were collected from HPAECs treated with vehicle (control medium), NECA (10 μM, NECA medium) or NECA and Compound A (100 nM) for 18 hours. These cell supernatants (diluted 1:1 in […] basal medium) with or without ambrisentan (30 nM) were used to incubate HPASMs for 18 hours. Cells were counted. NECA-HPAEC medium increased cell number of HPASMs at 18 hours compared to control-HPAEC medium.

HPASMs [10] = assay: Cytokine release from HPASMs (IL-6, IL-8, G-CSF); format: cell-based, human; conditions: NECA 10 μM with Compound A 100 nM, 18 hr
Experimental: as §1, §2, §4

[11] = mice, Compound A ~10 mg/kg/day in chow day 15 to 33, day 33
[12] = mice, Compound A ~10 mg/kg/day in chow day 15 to 33, α-SMA immunostaining
[13] = mice, Compound A ~10 mg/kg/day in chow, Flexivent

## CCCn1c(=O)c2[nH]c(-c3cnn(Cc4cccc(C(F)(F)F)c4)c3)nc2n(CC)c1=O [Compound A, 3-ethyl-1-propyl-8-(1-(3-(trifluoromethyl)benzyl)-1H-pyrazol-4-yl)-1H-purine-2,6(3H,7H)-dione]
HPAECs [1]
  NECA-induced release of IL-8: markedly reduced
HPASMs [2]
  NECA-induced increase in smooth muscle cell migration: inhibited
HPASMs [3]
  increase of NOTCH3 expression induced by NECA: inhibited
[4]
  vascular wall thickening: drastically reduced
HPASMs [5]
  NECA-induced release of thromboxane B2: markedly reduced
HPASMs [6]
  NECA-induced mRNA expression of ADAMTS1, ADAMTS8, CDH1, MMPI, MMP12, HAS1, ITGA7, COL1A1, COL8A1 and CTGF: reduced
HPAECs [7]
  NECA-induced release of ET-1: markedly reduced
[8]; awake mice, Compound A ~10 mg/kg/day in chow, pulse oximetry
  BLM-decreased arterial oxygenation levels: attenuated
[8]; mice, BALF and plasma, day 33, ELISA, Compound A ~10 mg/kg/day in chow
  BLM-induced increase of interleukin (IL)-6 level: significantly attenuated
[8]; mice, Compound A ~10 mg/kg/day in chow day 15 to 33, Masson's trichrome
  BLM-induced increase in peri-vascular fibrosis (total collagen levels in the lung): attenuated
[8]; [11]
  BLM-induced increase in RV hypertrophy: attenuated
  BLM-induced increase in RVSP: attenuated
[8]; [12]
  BLM-induced increase in extent of vascular muscularization: attenuated
  BLM-induced increase in number of muscularized vessels: attenuated
[8]; [13]
  BLM-increased dynamic resistance of the lungs: attenuated
  BLM-increased quasi-static elastance: attenuated
  BLM-increased tissue damping: attenuated
[8]; mice, plasma (ELISA) and pulmonary vessel wall, Compound A ~10 mg/kg/day in chow
  BLM-induced increase of ET-1: significantly attenuated
HPASMs [9]
  NECA induced proliferation of HPASMs: inhibited
HPASMs [10]
  NECA-induced release of G-CSF: markedly reduced
  NECA-induced release of IL-6: markedly reduced
  NECA-induced release of IL-8: markedly reduced
